Measured values from patent US20120164226A1, “Compositions and Methods for Improving Prognosis of a Human with Subarachnoid Hemorrhage” (priority 2007, published 2012).

How the values were obtained:
[1] = system: Subarachnoid Hemorrhage (SAH) Dog Model; assay: Study 2: angiographic vasospasm (basilar artery diameter) in SAH dog model; type: in vivo; details: oral nimodipine 0.86 mg/kg six times per day till day 21
Experimental: The mixture was added to a surfactant containing aqueous solution to form an emulsion and the solvent extracted to produce the flowable microparticulate nimodipine formulation. […] The microparticulate nimodipine formulation is combined with a pharmaceutical carrier to form the pharmaceutical composition of the described invention. […] The placebo formulation contained the microparticles plus vehicle, but no nimodipine. […] (Data not shown). […] On Day 1, the dogs were weighed, baseline blood was collected and blood pressure, temperature, heart rate oxygen, and blood gases were monitored throughout the surgical procedure. Cerebral angiography was performed through one vertebral artery. Images were captured using identical exposure factors and magnification for every angiogram. An internal magnification standard was included in every angiogram. […] The needle was withdrawn immediately after the injection. […] The animal was then turned supine, the femoral catheter was removed, and the femoral artery was ligated. The incision was closed in a standard fashion. […] The angiographic data was independently analyzed by two reviewers who were blinded to the animal group. […] Individual percent vasospasm was determined for each animal for Days 8 and 15 using formula (I): Average percent vasospasm for Days 8 and 15 was also determined for each group. […]

K^+ currents = details: cited from earlier work
T-type calcium currents = details: cited from earlier work
L-type calcium currents = details: cited from earlier work
[2] = system: R-type current in preparations of the neuronal cell body, retinal ganglion cells and hippocampal pyramidal cells; details: cited from earlier work
Na^+ currents = details: cited from earlier work
[3] = target: T1, R-type calcium current in the neurohypophysial nerve endings (Homo sapiens, UniProt Q15878); details: 40 nM concentration; cited from earlier work
T1 construct: R-type calcium current in the neurohypophysial nerve endings at 40 nM concentration; host or cells: neurohypophysial nerve endings

N-type calcium current = N-type calcium current (Homo sapiens, UniProt Q00975); details: 300 nM to 500 nM; cited from earlier work
[4] = target: P/Q-type calcium currents (Homo sapiens, UniProt O00555); details: cited from earlier work
P/Q-type calcium currents, sequence (O00555 whole entry): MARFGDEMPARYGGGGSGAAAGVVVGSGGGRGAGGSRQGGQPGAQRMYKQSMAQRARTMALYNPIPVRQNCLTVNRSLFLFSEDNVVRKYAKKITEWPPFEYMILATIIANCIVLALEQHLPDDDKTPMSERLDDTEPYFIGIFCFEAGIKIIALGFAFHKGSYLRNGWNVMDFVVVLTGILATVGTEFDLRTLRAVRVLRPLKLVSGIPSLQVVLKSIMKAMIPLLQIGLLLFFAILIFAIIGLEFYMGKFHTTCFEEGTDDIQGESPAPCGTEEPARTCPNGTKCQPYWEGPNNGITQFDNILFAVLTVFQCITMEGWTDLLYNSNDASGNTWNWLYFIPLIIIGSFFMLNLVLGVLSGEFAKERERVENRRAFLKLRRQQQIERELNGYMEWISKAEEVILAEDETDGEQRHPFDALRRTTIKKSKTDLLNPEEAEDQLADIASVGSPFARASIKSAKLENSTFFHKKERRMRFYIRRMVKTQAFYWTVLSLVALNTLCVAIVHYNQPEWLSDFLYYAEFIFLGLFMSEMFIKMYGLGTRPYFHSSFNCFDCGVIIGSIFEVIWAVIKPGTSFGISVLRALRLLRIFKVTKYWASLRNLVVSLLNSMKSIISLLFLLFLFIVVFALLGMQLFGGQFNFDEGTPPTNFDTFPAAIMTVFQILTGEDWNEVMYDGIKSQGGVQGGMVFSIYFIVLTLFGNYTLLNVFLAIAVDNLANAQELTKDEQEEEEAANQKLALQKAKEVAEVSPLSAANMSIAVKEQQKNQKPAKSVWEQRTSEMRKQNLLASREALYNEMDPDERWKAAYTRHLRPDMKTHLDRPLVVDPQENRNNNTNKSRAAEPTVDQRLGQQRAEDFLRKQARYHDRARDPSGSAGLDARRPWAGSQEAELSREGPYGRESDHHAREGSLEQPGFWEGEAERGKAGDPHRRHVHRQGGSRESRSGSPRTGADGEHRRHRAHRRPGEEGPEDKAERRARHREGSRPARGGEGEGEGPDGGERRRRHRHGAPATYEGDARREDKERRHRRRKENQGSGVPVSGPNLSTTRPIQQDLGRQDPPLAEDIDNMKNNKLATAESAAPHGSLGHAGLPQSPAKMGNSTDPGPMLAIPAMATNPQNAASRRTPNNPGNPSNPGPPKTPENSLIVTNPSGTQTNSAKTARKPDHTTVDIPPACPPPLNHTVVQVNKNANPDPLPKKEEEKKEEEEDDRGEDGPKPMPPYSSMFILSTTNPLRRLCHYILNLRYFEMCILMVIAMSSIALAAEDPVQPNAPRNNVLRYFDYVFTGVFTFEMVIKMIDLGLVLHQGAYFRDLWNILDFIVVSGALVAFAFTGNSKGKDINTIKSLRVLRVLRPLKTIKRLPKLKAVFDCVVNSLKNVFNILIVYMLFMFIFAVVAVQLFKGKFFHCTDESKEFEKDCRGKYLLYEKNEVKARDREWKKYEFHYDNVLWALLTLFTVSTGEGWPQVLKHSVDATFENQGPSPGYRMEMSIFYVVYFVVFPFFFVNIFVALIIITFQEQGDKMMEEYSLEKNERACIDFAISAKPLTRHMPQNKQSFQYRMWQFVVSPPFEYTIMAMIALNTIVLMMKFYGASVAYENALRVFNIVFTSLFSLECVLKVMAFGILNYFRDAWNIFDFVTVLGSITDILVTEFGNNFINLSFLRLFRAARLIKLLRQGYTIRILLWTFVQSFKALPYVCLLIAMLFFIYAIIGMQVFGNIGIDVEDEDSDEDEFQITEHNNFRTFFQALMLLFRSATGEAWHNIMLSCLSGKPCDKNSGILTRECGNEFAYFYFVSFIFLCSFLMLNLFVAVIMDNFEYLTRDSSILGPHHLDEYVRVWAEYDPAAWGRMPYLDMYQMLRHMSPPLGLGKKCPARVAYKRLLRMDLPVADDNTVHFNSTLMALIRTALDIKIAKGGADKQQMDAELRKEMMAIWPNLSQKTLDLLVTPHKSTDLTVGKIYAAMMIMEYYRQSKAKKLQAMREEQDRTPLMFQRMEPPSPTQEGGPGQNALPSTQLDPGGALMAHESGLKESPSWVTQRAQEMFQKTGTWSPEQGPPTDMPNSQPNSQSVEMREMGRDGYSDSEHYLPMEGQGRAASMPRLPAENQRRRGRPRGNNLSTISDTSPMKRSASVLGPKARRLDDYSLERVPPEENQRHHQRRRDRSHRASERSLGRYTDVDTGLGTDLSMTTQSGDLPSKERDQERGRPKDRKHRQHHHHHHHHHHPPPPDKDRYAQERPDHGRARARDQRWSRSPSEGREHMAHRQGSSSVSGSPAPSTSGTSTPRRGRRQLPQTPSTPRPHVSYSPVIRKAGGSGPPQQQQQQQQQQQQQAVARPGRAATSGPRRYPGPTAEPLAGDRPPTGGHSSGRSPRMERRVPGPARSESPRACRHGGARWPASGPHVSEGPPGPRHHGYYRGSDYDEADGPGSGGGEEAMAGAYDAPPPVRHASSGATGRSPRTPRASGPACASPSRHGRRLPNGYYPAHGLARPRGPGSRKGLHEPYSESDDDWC

T1 sequence (Q15878 whole entry): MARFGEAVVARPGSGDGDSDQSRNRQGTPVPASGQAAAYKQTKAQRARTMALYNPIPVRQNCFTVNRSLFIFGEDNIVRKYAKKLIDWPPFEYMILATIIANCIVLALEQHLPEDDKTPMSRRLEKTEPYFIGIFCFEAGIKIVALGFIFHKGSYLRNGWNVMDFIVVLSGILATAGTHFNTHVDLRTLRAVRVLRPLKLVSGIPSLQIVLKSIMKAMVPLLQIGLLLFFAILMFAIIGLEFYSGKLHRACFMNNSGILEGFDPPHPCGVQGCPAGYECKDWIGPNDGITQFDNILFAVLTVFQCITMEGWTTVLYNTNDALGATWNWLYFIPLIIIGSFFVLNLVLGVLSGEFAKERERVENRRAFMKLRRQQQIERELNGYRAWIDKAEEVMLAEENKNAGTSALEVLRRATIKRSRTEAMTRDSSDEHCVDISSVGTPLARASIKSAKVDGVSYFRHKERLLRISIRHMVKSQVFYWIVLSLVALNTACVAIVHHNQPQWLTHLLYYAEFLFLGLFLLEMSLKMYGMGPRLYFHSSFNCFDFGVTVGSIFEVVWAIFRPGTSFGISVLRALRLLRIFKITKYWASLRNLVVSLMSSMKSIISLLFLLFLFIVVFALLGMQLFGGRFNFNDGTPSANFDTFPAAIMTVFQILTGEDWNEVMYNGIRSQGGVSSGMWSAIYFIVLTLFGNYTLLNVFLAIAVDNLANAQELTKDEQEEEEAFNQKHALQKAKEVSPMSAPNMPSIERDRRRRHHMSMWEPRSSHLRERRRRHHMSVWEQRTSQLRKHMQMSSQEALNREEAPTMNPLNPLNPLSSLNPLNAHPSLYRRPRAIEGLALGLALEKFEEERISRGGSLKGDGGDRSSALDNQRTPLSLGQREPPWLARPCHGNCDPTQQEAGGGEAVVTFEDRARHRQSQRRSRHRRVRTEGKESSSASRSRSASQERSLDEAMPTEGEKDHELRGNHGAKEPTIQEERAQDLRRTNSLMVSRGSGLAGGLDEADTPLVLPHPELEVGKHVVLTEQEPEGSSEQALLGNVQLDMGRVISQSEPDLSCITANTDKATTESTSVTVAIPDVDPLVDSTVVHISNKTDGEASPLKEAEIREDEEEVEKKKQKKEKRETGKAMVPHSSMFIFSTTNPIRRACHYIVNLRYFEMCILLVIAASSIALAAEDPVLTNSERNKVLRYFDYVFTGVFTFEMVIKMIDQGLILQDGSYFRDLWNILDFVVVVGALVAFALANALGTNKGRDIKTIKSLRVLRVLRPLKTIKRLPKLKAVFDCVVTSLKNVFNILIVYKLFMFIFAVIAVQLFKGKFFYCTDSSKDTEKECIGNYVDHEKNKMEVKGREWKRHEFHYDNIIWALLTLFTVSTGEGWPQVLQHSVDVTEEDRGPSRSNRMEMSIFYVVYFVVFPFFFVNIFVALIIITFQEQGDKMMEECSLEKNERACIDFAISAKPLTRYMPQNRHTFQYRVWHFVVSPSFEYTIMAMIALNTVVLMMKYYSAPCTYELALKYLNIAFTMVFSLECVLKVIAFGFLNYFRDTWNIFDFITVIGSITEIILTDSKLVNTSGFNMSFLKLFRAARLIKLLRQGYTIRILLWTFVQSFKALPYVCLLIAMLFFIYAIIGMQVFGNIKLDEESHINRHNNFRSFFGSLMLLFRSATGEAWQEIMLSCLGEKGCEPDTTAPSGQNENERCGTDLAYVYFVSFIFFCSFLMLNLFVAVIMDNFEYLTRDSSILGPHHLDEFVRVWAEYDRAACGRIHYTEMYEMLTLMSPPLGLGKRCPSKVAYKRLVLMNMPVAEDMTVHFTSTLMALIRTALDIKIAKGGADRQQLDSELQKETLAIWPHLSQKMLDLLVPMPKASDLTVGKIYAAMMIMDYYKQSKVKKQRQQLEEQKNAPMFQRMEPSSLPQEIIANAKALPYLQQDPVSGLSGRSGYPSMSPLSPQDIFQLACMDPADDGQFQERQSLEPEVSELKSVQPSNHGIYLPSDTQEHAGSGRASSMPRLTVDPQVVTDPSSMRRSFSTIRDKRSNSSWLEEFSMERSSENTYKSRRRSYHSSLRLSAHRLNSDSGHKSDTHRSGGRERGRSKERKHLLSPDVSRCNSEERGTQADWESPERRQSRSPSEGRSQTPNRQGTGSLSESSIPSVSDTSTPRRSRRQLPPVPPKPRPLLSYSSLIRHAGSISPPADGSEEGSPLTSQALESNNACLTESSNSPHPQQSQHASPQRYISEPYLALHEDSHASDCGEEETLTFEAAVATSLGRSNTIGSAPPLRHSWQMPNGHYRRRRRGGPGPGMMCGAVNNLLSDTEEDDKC

Compound | percent vasospasm (% change in mean basilar artery diameter from baseline), Mean ([1]; Day 8) | percent vasospasm (% change in mean basilar artery diameter from baseline), Mean ([1]; Day 15) | effect on K+ currents (K^+ currents) | effect on T-type calcium currents (T-type calcium currents) | effect on L-type calcium currents (L-type calcium currents) | effect on R-type current [2] | effect on Na+ currents (Na^+ currents) | block of R-type calcium current [3] | N-type calcium current blocked (N-type calcium current) | effect on P/Q-type calcium currents [4]
COCCOC(=O)C1=C(C)NC(C)=C(C(=O)OC(C)C)C1c1cccc([N+](=O)[O-])c1 (stereo not shown) [Control, nimodipine] | −27.89% | −11.67% |  |  |  |  |  |  |  | 
SNX-482 |  |  | no effect | no effect | no effect | no significant effect | no effect | blocks | 30-50% | no effect
